Test results as given in US8404679B2, “Pyrrolidine derivatives as NK2 receptor antagonists” (Hoffmann-La Roche Inc., priority 2008, dated 2013).
pKi: −log10 of the molar value.

Each molecule was assayed against T1, human NK2 receptor (Homo sapiens, UniProt P21452) (assay: [3H]SR48968 competition binding assay). Conditions: [3H]SR48968 displacement, membranes of CHO cells stably expressing recombinant human NK2 receptor; Ki from IC50 by Cheng-Prussoff.
T1 construct: purchased Perkin Elmer biosignal Inc. 6110510
T1 sequence (P21452 1-398): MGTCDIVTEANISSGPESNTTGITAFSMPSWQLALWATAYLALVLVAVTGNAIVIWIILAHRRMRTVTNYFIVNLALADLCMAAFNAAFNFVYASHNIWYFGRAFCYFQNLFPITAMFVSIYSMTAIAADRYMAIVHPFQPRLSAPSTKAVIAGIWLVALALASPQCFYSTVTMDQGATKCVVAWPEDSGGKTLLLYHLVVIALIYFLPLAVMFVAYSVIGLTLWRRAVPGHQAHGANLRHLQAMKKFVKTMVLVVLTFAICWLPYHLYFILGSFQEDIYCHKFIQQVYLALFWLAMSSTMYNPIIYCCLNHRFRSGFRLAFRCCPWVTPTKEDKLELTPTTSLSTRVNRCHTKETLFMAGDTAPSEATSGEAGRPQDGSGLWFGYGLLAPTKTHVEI
Method in brief: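 Membranes from CHO cells stably expressing recombinant human NK2 were incubated 75 min at RT with [3H]SR48968 at its KD and 10 compound concentrations (0.0003–10 μM) in Tris-HCl pH 7.4, MnCl2, chymostatin, BSA. Filter-bound radioactivity was counted; Hill-fitted IC50 converted to Ki via Cheng-Prusoff.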

Row | SMILES | pKi
1 | CN(C(=O)c1ccc(Cl)c(C(F)(F)F)c1)[C@H]1CN(C(=O)C2CCNCC2)C[C@@H]1c1ccc(Cl)cc1 (racemic) [Example 160, 4-Chloro-N-[(3RS,4SR)-4-(4-chloro-phenyl)-1-(piperidine-4-carbonyl)-pyrrolidin-3-yl]-N-methyl-3-trifluoromethyl-benzamide] | 8.30
2 | CN(C(=O)c1ccc(Cl)c(C(F)(F)F)c1)[C@H]1CN(C(=O)C2CCN(S(=O)(=O)C3CC3)CC2)C[C@@H]1c1ccc(Cl)cc1 (racemic) [Example 161, 4-Chloro-N-[(3RS,4SR)-4-(4-chloro-phenyl)-1-(1-cyclopropanesulfonyl-piperidine-4-carbonyl)-pyrrolidin-3-yl]-N-methyl-3-trifluoromethyl-benzamide] | 8.77
3 | CN(C(=O)c1ccc(Cl)c(C(F)(F)F)c1)[C@H]1CN(C(=O)C2CCN(CC#N)CC2)C[C@@H]1c1ccc(Cl)cc1 (racemic) [Example 163, 4-Chloro-N-[(3RS,4SR)-4-(4-chloro-phenyl)-1-(1-cyanomethyl-piperidine-4-carbonyl)-pyrrolidin-3-yl]-N-methyl-3-trifluoromethyl-benzamide] | 8.43
4 | CN(C(=O)c1ccc(Cl)c(C2CC2)c1)[C@H]1CN(C(=O)C2CCN(C(=O)C3(C)CC3)CC2)C[C@@H]1c1ccc(Cl)c(Cl)c1 (racemic) [Example 173, 4-Chloro-3-cyclopropyl-N-{(3RS,4SR)-4-(3,4-dichloro-phenyl)-1-[1-(1-methyl-cyclopropanecarbonyl)-piperidine-4-carbonyl]-pyrrolidin-3-yl}-N-methyl-benzamide] | 8.77
5 | COc1ccc(C(=O)N(C)[C@@H]2CN(C(=O)N3CCN(S(C)(=O)=O)[C@@H](C)C3)C[C@H]2c2ccc(Cl)c(Cl)c2)cc1C(F)(F)F [Example 42] | 8.85
6 | COc1ccc(C(=O)N(C)[C@@H]2CN(C(=O)N3CCN(S(C)(=O)=O)[C@H](C)C3)C[C@H]2c2ccc(Cl)c(Cl)c2)cc1C(F)(F)F [Example 43] | 8.65
7 | CN(C(=O)Cc1ccc(F)cc1)[C@H]1CN(C(=O)C2CCN(C(=O)C3(C)CC3)CC2)C[C@@H]1c1ccc(Cl)c(Cl)c1 [Example 118, N-{(3R,4S)-4-(3,4-Dichloro-phenyl)-1-[1-(1-methyl-cyclopropanecarbonyl)-piperidine-4-carbonyl]-pyrrolidin-3-yl}-2-(4-fluoro-phenyl)-N-methyl-acetamide] | 7.49
8 | CN(C(=O)Cc1ccc(F)cc1)[C@@H]1CN(C(=O)C2CCN(C(=O)C3(C)CC3)CC2)C[C@H]1c1ccc(Cl)c(Cl)c1 [Example 119, N-{(3S,4R)-4-(3,4-Dichloro-phenyl)-1-[1-(1-methyl-cyclopropanecarbonyl)-piperidine-4-carbonyl]-pyrrolidin-3-yl}-2-(4-fluoro-phenyl)-N-methyl-acetamide] | 7.95
9 | COc1ccc(C(=O)N(C)[C@H]2CN(C(=O)C3CCN(C(=O)C4(C)CC4)CC3)C[C@@H]2c2ccc(Cl)cc2C)cc1C(F)(F)F [Example 123, N-{(3R,4S)-4-(4-Chloro-2-methyl-phenyl)-1-[1-(1-methyl-cyclopropanecarbonyl)-piperidine-4-carbonyl]-pyrrolidin-3-yl}-4-methoxy-N-methyl-3-trifluoromethyl-benzamide] | 7.42
10 | CN(C(=O)c1ccc(Cl)c(C(F)(F)F)c1)[C@H]1CN(C(=O)C2CCN(CC3CC3)CC2)C[C@@H]1c1ccc(Cl)cc1 [Example 153, 4-Chloro-N-[(3R,4S)-4-(4-chloro-phenyl)-1-(1-cyclopropylmethyl-piperidine-4-carbonyl)-pyrrolidin-3-yl]-N-methyl-3-trifluoromethyl-benzamide] | 7.28
11 | CN(C(=O)c1ccc(Cl)c(C(F)(F)F)c1)[C@@H]1CN(C(=O)C2CCN(CC3CC3)CC2)C[C@H]1c1ccc(Cl)c(Cl)c1 [Example 167, 4-Chloro-N-[(3S,4R)-1-(1-cyclopropylmethyl-piperidine-4-carbonyl)-4-(3,4-dichloro-phenyl)-pyrrolidin-3-yl]-N-methyl-3-trifluoromethyl-benzamide] | 7.03
12 | CN(C(=O)c1ccc(Cl)c(C2CC2)c1)[C@H]1CN(C(=O)C2CCN(C(=O)C3(C)CC3)CC2)C[C@@H]1c1ccc(Cl)c(Cl)c1 [Example 175, 4-Chloro-3-cyclopropyl-N-{(3R,4S)-4-(3,4-dichloro-phenyl)-1-[1-(1-methyl-cyclopropanecarbonyl)-piperidine-4-carbonyl]-pyrrolidin-3-yl}-N-methyl-benzamide] | 7.38

The next molecules have a higher pKi than those just listed; values first:

Row | pKi | SMILES
13 | 9.40 | CN(C(=O)c1ccc(Cl)c(C(F)(F)F)c1)[C@H]1CN(C(=O)C2CCN(C3CCOCC3)CC2)C[C@@H]1c1ccc(Cl)cc1 (racemic) [Example 162, 4-Chloro-N-{(3RS,4SR)-4-(4-chloro-phenyl)-1-[1-(tetrahydro-pyran-4-yl)-piperidine-4-carbonyl]-pyrrolidin-3-yl}-N-methyl-3-trifluoromethyl-benzamide]
14 | 9.30 | CN(C(=O)c1ccc(Cl)c(C(F)(F)F)c1)[C@H]1CN(C(=O)C2CCN(CC3CC3)CC2)C[C@@H]1c1ccc(Cl)c(Cl)c1 (racemic) [Example 164, 4-Chloro-N-[(3RS,4SR)-1-(1-cyclopropylmethyl-piperidine-4-carbonyl)-4-(3,4-dichloro-phenyl)-pyrrolidin-3-yl]-N-methyl-3-trifluoromethyl-benzamide]
15 | 8.89 | CN(C(=O)c1ccc(Cl)c(C(F)(F)F)c1)[C@H]1CN(C(=O)C2CCN(CCC#N)CC2)C[C@@H]1c1ccc(Cl)cc1 (racemic) [Example 165, 4-Chloro-N-{(3RS,4SR)-4-(4-chloro-phenyl)-1-[1-(2-cyano-ethyl)-piperidine-4-carbonyl]-pyrrolidin-3-yl}-N-methyl-3-trifluoromethyl-benzamide]
16 | 9.15 | CN(C(=O)c1cc(C(F)(F)F)ccn1)[C@H]1CN(C(=O)C2CCN(C(=O)C3(C)CC3)CC2)C[C@@H]1c1ccc(Cl)c(Cl)c1 (racemic) [Example 166, 4-Trifluoromethyl-pyridine-2-carboxylic acid {(3RS,4SR)-4-(3,4-dichloro-phenyl)-1-[1-(1-methyl-cyclopropanecarbonyl)-piperidine-4-carbonyl]-pyrrolidin-3-yl}-methyl-amide]
17 | 9.10 | CN(C(=O)c1ccc(Cl)c(Br)c1)[C@H]1CN(C(=O)C2CCN(C(=O)C3(C)CC3)CC2)C[C@@H]1c1ccc(Cl)c(Cl)c1 (racemic) [Example 171, 3-Bromo-4-chloro-N-{(3RS,4SR)-4-(3,4-dichloro-phenyl)-1-[1-(1-methyl-cyclopropanecarbonyl)-piperidine-4-carbonyl]-pyrrolidin-3-yl}-N-methyl-benzamide]
18 | 9.05 | CCc1cc(C(=O)N(C)[C@H]2CN(C(=O)C3CCN(C(=O)C4(C)CC4)CC3)C[C@@H]2c2ccc(Cl)c(Cl)c2)ccc1Cl (racemic) [Example 174, 4-Chloro-N-{(3RS,4SR)-4-(3,4-dichloro-phenyl)-1-[1-(1-methyl-cyclopropanecarbonyl)-piperidine-4-carbonyl]-pyrrolidin-3-yl}-3-ethyl-N-methyl-benzamide]
19 | 9.22 | COc1ccc(C(=O)N(C)[C@@H]2CN(C(=O)C3CCN(C(=O)C4(C)CC4)CC3)C[C@H]2c2ccc(Cl)cc2)cc1C(F)(F)F [Example 94, N-{(3S,4R)-4-(4-Chloro-phenyl)-1-[1-(1-methyl-cyclopropanecarbonyl)-piperidine-4-carbonyl]-pyrrolidin-3-yl}-4-methoxy-N-methyl-3-trifluoromethyl-benzamide]
20 | 9.22 | COc1ccc(C(=O)N(C)[C@@H]2CN(C(=O)C3CCN(C(=O)C4(C)CC4)CC3)C[C@H]2c2ccc(Cl)c(Cl)c2)cc1C(F)(F)F [Example 107, N-{(3S,4R)-4-(3,4-Dichloro-phenyl)-1-[1-(1-methyl-cyclopropanecarbonyl)-piperidine-4-carbonyl]-pyrrolidin-3-yl}-4-methoxy-N-methyl-3-trifluoromethyl-benzamide]
21 | 9.30 | CN(C(=O)c1ccc(Cl)c(C(F)(F)F)c1)[C@@H]1CN(C(=O)C2CCN(CC3CC3)CC2)C[C@H]1c1ccc(Cl)cc1 [Example 154, 4-Chloro-N-[(3S,4R)-4-(4-chloro-phenyl)-1-(1-cyclopropylmethyl-piperidine-4-carbonyl)-pyrrolidin-3-yl]-N-methyl-3-trifluoromethyl-benzamide]
22 | 9.10 | CN(C(=O)c1ccc(Cl)c(C(F)(F)F)c1)[C@@H]1CN(C(=O)C2CCN(C(=O)C3(C)CC3)CC2)C[C@H]1c1ccc(Cl)cc1 [Example 156, 4-Chloro-N-{(3S,4R)-4-(4-chloro-phenyl)-1-[1-(1-methyl-cyclopropanecarbonyl)-piperidine-4-carbonyl]-pyrrolidin-3-yl}-N-methyl-3-trifluoromethyl-benzamide]
23 | 9.40 | CN(C(=O)c1ccc(Cl)c(C(F)(F)F)c1)[C@H]1CN(C(=O)C2CCN(CC3CC3)CC2)C[C@@H]1c1ccc(Cl)c(Cl)c1 [Example 168, 4-Chloro-N-[(3R,4S)-1-(1-cyclopropylmethyl-piperidine-4-carbonyl)-4-(3,4-dichloro-phenyl)-pyrrolidin-3-yl]-N-methyl-3-trifluoromethyl-benzamide]
24 | 9.40 | CN(C(=O)c1cc(C(F)(F)F)ccn1)[C@@H]1CN(C(=O)C2CCN(C(=O)C3(C)CC3)CC2)C[C@H]1c1ccc(Cl)c(Cl)c1 [Example 170, 4-Trifluoromethyl-pyridine-2-carboxylic acid {(3S,4R)-4-(3,4-dichloro-phenyl)-1-[1-(1-methyl-cyclopropanecarbonyl)-piperidine-4-carbonyl]-pyrrolidin-3-yl}-methyl-amide]
